Measured values from patent US20230241014A1, “MEK-INHIBITORS FOR THE TREATMENT OR PREVENTION OF CORONAVIRUS INFECTIONS AND/OR COVID-19 CYTOKINE STORM” (priority 2020, published 2023).

System: SARS-CoV-2 SA variant B.1351
Assay: Virus yield reduction assay against SARS-CoV-2 SA variant B.1351
Type: cell-based
Conditions: MOI 0.1, 1 and 10, 50, 75, 100 μM, 24 h

## O=C(O)c1ccc(F)c(F)c1Nc1ccc(I)cc1Cl [ATR-002, 2-(2-chloro-4-iodophenylamino)-N-3,4-difluoro benzoic acid]
Calu-3
  virus yield (RT-qPCR): reduction of virus yield
Vero
  virus yield (RT-qPCR): reduction of virus yield
